Where “and” joins values, the source holds several entries; their conditions need not be identical. Identical values can stand only once. Values belong to the compound of their own block, whether it stands above or below them.
Tested on: MDA-MB-231 complex spheroids, growth inhibition
Test: Anticancer human tumor MDA-MB-231 cell line growth inhibition [Asc];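 also: spheroids exposed to compounds for 7 days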
Conditions: for viability, T/C: stronger effect = lower value
Method in brief: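 Stromal components (HUVEC and hMSC) are co-assembled with the cancer cells into multicellular spheroids. Drugs are then added singly or paired, at concentrations falling by half-log increments from a clinically achievable maximum, capped at 10 microM without known Cmax.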

[1] = curve of first compound, second compound 0.03 µM
[2] = curve of first compound, second compound 0.0949 µM
[3] = curve of first compound, second compound 0.3 µM
[4] = curve of first compound, second compound 0.949 µM
[5] = curve of first compound, second compound 3 µM

Compound: Cn1ncnc1[C@H]1c2n[nH]c(=O)c3cc(F)cc(c23)N[C@@H]1c1ccc(F)cc1 + CNC(C)C(=O)NC1CN(S(=O)(=O)c2cccc(S(=O)(=O)N3CCC4CCC(C(=O)NC(c5ccccc5)c5ccccc5)N4C(=O)C(NC(=O)C(C)NC)C3)c2)CCC2CCC(C(=O)NC(c3ccccc3)c3ccccc3)N2C1=O
IC50 (curve of first compound, second compound 0.01 µM): < 0.316 nM
IC50 (curve of first compound, second compound 0.0316 µM): < 0.316 nM
IC50 (curve of first compound, second compound 0.1 µM): < 0.316 nM
IC50 (curve of first compound, second compound 0.316 µM): < 0.316 nM
IC50 (curve of first compound, second compound 1 µM): < 0.316 nM
viability, T/C (second compound 0.01 µM, first compound 0.000316 µM): 1.83%
viability, T/C (second compound 0.01 µM, first compound 0.001 µM): 2.14%
viability, T/C (second compound 0.01 µM, first compound 0.00316 µM): 2.04%
viability, T/C (second compound 0.01 µM, first compound 0.01 µM): 2.04%
viability, T/C (second compound 0.01 µM, first compound 0.0316 µM): 1.45%
viability, T/C (second compound 0.01 µM, first compound 0.1 µM): 1.63%
viability, T/C (second compound 0.0316 µM, first compound 0.000316 µM): 1.73%
viability, T/C (second compound 0.0316 µM, first compound 0.001 µM): 1.45%
viability, T/C (second compound 0.0316 µM, first compound 0.00316 µM): 1.76%
viability, T/C (second compound 0.0316 µM, first compound 0.01 µM): 1.3%
viability, T/C (second compound 0.0316 µM, first compound 0.0316 µM): 1.2%
viability, T/C (second compound 0.0316 µM, first compound 0.1 µM): 1.22%
viability, T/C (second compound 0.1 µM, first compound 0.000316 µM): 1.17%
viability, T/C (second compound 0.1 µM, first compound 0.001 µM): 1.47%
viability, T/C (second compound 0.1 µM, first compound 0.00316 µM): 0.96%
viability, T/C (second compound 0.1 µM, first compound 0.01 µM): 1.19%
viability, T/C (second compound 0.1 µM, first compound 0.0316 µM): 1.34%
viability, T/C (second compound 0.1 µM, first compound 0.1 µM): 1.16%
viability, T/C (second compound 0.316 µM, first compound 0.000316 µM): 1.12%
viability, T/C (second compound 0.316 µM, first compound 0.001 µM): 1.11%
viability, T/C (second compound 0.316 µM, first compound 0.00316 µM): 1.32%
viability, T/C (second compound 0.316 µM, first compound 0.01 µM): 0.91%
viability, T/C (second compound 0.316 µM, first compound 0.0316 µM): 1.05%
viability, T/C (second compound 0.316 µM, first compound 0.1 µM): 1.11%
viability, T/C (second compound 1 µM, first compound 0.000316 µM): 1.53%
viability, T/C (second compound 1 µM, first compound 0.001 µM): 1.2%
viability, T/C (second compound 1 µM, first compound 0.00316 µM): 1.23%
viability, T/C (second compound 1 µM, first compound 0.01 µM): 1.23%
viability, T/C (second compound 1 µM, first compound 0.0316 µM): 1.28%
viability, T/C (second compound 1 µM, first compound 0.1 µM): 1.26%

Compound: CCN1C(C(=O)NC23CCC(C(=O)O)(CC2)CC3)C(c2cccc(Cl)c2F)C2(C(=O)Nc3cc(Cl)ccc32)C12CCCCC2 (centres undefined)
viability, T/C (compound 0.00949 µM): 96.1% and 106%
viability, T/C (compound 0.03 µM): 97.5% [middle of 15 runs]
viability, T/C (compound 0.0949 µM): 104% [middle of 15 runs]
viability, T/C (compound 0.3 µM): 105% [middle of 15 runs]
viability, T/C (compound 0.949 µM): 112% [middle of 15 runs]
IC50 (compound alone, run of 10/11/2022): > 3000 nM
IC50 (curve of compound): > 3000 nM

Continued, in another order:

IC50 (curve of compound): 3510 nM and 3280 nM and 4780 nM
Compound: C=C(F)C(=O)N1CCN(c2nc(OCC3CCCN3C)nc3c2CCN(c2cccc4cccc(Cl)c24)C3)CC1CC#N (centres undefined)
viability, T/C (compound 0.0316 µM): 101% (2×) and 104%
viability, T/C (compound 0.1 µM): 103% and 99.7% and 93.1%
viability, T/C (compound 0.316 µM): 103% and 98.3% and 110%
viability, T/C (compound 1 µM): 101% and 94.9% and 103%
viability, T/C (compound 3.16 µM): 54.9% and 51.6% and 77.3%
viability, T/C (compound 10 µM): 0.35% and 0.45% and 1.25%

IC50 [1]: 319 nM
IC50 [2]: 337 nM
IC50 [3]: 281 nM
IC50 [4]: 270 nM
IC50 [5]: 157 nM
Compound: Cc1nc(N2CCC3(CC2)COC(C)C3N)c(CO)nc1Sc1ccnc(N)c1Cl (centres undefined) + CCN1C(C(=O)NC23CCC(C(=O)O)(CC2)CC3)C(c2cccc(Cl)c2F)C2(C(=O)Nc3cc(Cl)ccc32)C12CCCCC2
viability, T/C (second compound 0.03 µM, first compound 0.00949 µM): 95.8%
viability, T/C (second compound 0.03 µM, first compound 0.03 µM): 95.4%
viability, T/C (second compound 0.03 µM, first compound 0.0949 µM): 96.7%
viability, T/C (second compound 0.03 µM, first compound 0.3 µM): 52.7%
viability, T/C (second compound 0.03 µM, first compound 0.949 µM): 2.27%
viability, T/C (second compound 0.03 µM, first compound 3 µM): 0.7%
viability, T/C (second compound 0.0949 µM, first compound 0.00949 µM): 95.7%
viability, T/C (second compound 0.0949 µM, first compound 0.03 µM): 95.7%
viability, T/C (second compound 0.0949 µM, first compound 0.0949 µM): 87.2%
viability, T/C (second compound 0.0949 µM, first compound 0.3 µM): 56%
viability, T/C (second compound 0.0949 µM, first compound 0.949 µM): 2.11%
viability, T/C (second compound 0.0949 µM, first compound 3 µM): 0.82%
viability, T/C (second compound 0.3 µM, first compound 0.00949 µM): 99.6%
viability, T/C (second compound 0.3 µM, first compound 0.03 µM): 99%
viability, T/C (second compound 0.3 µM, first compound 0.0949 µM): 98.3%
viability, T/C (second compound 0.3 µM, first compound 0.3 µM): 47.1%
viability, T/C (second compound 0.3 µM, first compound 0.949 µM): 2.58%
viability, T/C (second compound 0.3 µM, first compound 3 µM): 0.88%
viability, T/C (second compound 0.949 µM, first compound 0.00949 µM): 109%
viability, T/C (second compound 0.949 µM, first compound 0.03 µM): 108%
viability, T/C (second compound 0.949 µM, first compound 0.0949 µM): 107%
viability, T/C (second compound 0.949 µM, first compound 0.3 µM): 44.2%
viability, T/C (second compound 0.949 µM, first compound 0.949 µM): 2.18%
viability, T/C (second compound 0.949 µM, first compound 3 µM): 0.9%
viability, T/C (second compound 3 µM, first compound 0.00949 µM): 91.1%
viability, T/C (second compound 3 µM, first compound 0.03 µM): 89.2%
viability, T/C (second compound 3 µM, first compound 0.0949 µM): 81.8%
viability, T/C (second compound 3 µM, first compound 0.3 µM): 9.35%
viability, T/C (second compound 3 µM, first compound 0.949 µM): 1.26%
viability, T/C (second compound 3 µM, first compound 3 µM): 0.54%

IC50 [1]: 305 nM
IC50 [2]: 479 nM
IC50 [3]: > 1000 nM
IC50 [4]: > 1000 nM
IC50 [5]: > 1000 nM
Compound: CCN1CCN(Cc2ccc(Nc3ncc(F)c(-c4cc(F)c5nc(C)n(C(C)C)c5c4)n3)nc2)CC1 + CCN1C(C(=O)NC23CCC(C(=O)O)(CC2)CC3)C(c2cccc(Cl)c2F)C2(C(=O)Nc3cc(Cl)ccc32)C12CCCCC2
viability, T/C (second compound 0.03 µM, first compound 0.00316 µM): 102%
viability, T/C (second compound 0.03 µM, first compound 0.01 µM): 94.3%
viability, T/C (second compound 0.03 µM, first compound 0.0316 µM): 76.6%
viability, T/C (second compound 0.03 µM, first compound 0.1 µM): 59%
viability, T/C (second compound 0.03 µM, first compound 0.316 µM): 49.8%
viability, T/C (second compound 0.03 µM, first compound 1 µM): 46.6%
viability, T/C (second compound 0.0949 µM, first compound 0.00316 µM): 109%
viability, T/C (second compound 0.0949 µM, first compound 0.01 µM): 98.8%
viability, T/C (second compound 0.0949 µM, first compound 0.0316 µM): 79.7%
viability, T/C (second compound 0.0949 µM, first compound 0.1 µM): 61.8%
viability, T/C (second compound 0.0949 µM, first compound 0.316 µM): 50.5%
viability, T/C (second compound 0.0949 µM, first compound 1 µM): 48.1%
viability, T/C (second compound 0.3 µM, first compound 0.00316 µM): 103%
viability, T/C (second compound 0.3 µM, first compound 0.01 µM): 99.9%
viability, T/C (second compound 0.3 µM, first compound 0.0316 µM): 86.9%
viability, T/C (second compound 0.3 µM, first compound 0.1 µM): 67%
viability, T/C (second compound 0.3 µM, first compound 0.316 µM): 55%
viability, T/C (second compound 0.3 µM, first compound 1 µM): 52.7%
viability, T/C (second compound 0.949 µM, first compound 0.00316 µM): 105%
viability, T/C (second compound 0.949 µM, first compound 0.01 µM): 101%
viability, T/C (second compound 0.949 µM, first compound 0.0316 µM): 85.5%
viability, T/C (second compound 0.949 µM, first compound 0.1 µM): 67.2%
viability, T/C (second compound 0.949 µM, first compound 0.316 µM): 52.8%
viability, T/C (second compound 0.949 µM, first compound 1 µM): 53%
viability, T/C (second compound 3 µM, first compound 0.00316 µM): 94.8%
viability, T/C (second compound 3 µM, first compound 0.01 µM): 86.6%
viability, T/C (second compound 3 µM, first compound 0.0316 µM): 73.6%
viability, T/C (second compound 3 µM, first compound 0.1 µM): 54.5%
viability, T/C (second compound 3 µM, first compound 0.316 µM): 49.1%
viability, T/C (second compound 3 µM, first compound 1 µM): 52.6%

Reference: PubChem BioAssay AID1963443 (Molecular Pharmacology Branch, DTP, NCI, 2024)
